Source: article PMC10213791 (Acta Pharmaceutica Sinica. B, 2022)

Tests used:
[1] = target: T1, eukaryotic translation elongation factor 1 alpha 1 (eEF1A1) (Homo sapiens, UniProt P68104); test: SPR; type: binding
T1 sequence (P68104 2-462): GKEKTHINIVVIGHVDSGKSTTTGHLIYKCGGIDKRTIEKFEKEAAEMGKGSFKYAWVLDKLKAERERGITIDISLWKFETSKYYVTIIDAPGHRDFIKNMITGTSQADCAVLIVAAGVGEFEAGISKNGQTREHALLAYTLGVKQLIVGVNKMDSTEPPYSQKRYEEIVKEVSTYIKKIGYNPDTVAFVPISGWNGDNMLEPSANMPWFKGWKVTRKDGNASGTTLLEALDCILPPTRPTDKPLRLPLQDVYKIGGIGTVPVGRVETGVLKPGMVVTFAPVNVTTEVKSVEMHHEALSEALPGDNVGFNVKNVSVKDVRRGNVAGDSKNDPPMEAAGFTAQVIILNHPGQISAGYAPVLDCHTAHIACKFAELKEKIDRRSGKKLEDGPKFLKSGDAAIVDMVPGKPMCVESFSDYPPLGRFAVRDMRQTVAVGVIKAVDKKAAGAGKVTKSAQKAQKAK

[2] = target: T2, vacuolar protein sorting 4 homolog B (VPS4B) (Homo sapiens, UniProt O75351); test: SPR; type: binding
T2 sequence (O75351 1-444): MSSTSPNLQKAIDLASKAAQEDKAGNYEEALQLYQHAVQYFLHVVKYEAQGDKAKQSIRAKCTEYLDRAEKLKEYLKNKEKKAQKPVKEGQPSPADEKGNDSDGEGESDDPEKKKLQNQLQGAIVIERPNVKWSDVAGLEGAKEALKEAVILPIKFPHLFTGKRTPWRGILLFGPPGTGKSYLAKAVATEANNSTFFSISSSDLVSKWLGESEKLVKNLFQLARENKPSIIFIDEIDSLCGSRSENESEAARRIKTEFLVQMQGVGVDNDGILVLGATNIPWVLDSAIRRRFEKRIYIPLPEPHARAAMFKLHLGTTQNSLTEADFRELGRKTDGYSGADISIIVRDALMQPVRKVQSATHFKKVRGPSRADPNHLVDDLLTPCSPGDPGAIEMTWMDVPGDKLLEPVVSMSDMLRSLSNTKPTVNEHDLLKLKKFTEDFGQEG

peroxiredoxin 3 (PRDX3) = target: T3, peroxiredoxin 3 (PRDX3) (Homo sapiens, UniProt P30048); test: SPR; type: binding
T3 sequence (P30048 62-256): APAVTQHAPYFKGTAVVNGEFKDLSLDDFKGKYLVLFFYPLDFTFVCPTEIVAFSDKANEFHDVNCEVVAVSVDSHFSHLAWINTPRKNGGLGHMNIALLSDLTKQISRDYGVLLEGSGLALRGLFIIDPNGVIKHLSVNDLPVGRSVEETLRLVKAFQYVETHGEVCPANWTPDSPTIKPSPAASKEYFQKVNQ

EIF2AK2 = EIF2AK2 (Homo sapiens, UniProt P19525); test: biochemical
Sequence of EIF2AK2 (P19525 2-551): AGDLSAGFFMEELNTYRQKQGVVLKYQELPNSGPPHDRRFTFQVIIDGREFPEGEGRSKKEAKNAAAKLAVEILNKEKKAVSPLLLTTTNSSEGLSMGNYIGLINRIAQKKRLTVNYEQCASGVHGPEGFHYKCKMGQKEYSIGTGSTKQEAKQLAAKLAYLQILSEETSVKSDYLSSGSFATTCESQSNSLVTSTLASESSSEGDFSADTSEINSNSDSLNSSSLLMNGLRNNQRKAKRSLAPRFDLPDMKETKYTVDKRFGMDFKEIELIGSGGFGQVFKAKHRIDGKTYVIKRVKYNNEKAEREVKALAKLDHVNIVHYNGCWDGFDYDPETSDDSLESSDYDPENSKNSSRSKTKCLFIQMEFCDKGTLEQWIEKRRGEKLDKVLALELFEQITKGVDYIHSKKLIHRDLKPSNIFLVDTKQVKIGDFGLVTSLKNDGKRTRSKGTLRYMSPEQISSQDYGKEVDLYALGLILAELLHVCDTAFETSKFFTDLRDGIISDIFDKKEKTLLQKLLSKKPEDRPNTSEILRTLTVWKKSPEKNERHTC

| SMILES | Kd [1] | Kd [2] | Kd (peroxiredoxin 3 (PRDX3)) | IC50 (EIF2AK2) |
| --- | --- | --- | --- | --- |
| COc1ccc2cc3[n+](cc2c1OC)CCc1cc2c(cc1-3)OCO2 [BBR, berberine] | 13.4 µM | 16.8 µM | 23.7 µM | – |
| O=C1Nc2ccc3ncsc3c2/C1=C/c1c[nH]cn1 [C16] | – | – | – | 1.01 µM |
